This note sets out measurements from US12465588B2, “Indole carboxamide derivative and pharmaceutical composition containing same” (KUKJE PHARMA CO., LTD., priority 2019, dated 2025).

Marks after values point to notes of the source that are not given here.

Test [1] has as its system A549 human lung cancer cells. The test can be described thus: Measurement of PGE2 in IL-1β-treated A549 human lung cancer cells. Type of test: cell-based. The conditions noted are these: PGE2 production, A549 cell, IL-1β 1 ng/mL, 48 hours. How it is done:
Samples at various concentrations were added at 24 hours after A549 human lung cancer cells were seeded. After 1 hour, IL-1β of 1 ng/mL was added. The cells were cultured for 48 hours and then the culture supernatant was collected. PGE2 of the collected supernatant was measured according to the manufacturer's instructions using a PGE2 EIA kit.

The test system of test [2] is guinea pig model of osteoarthritis induced by MIA (monosodium iodoacetate). Briefly: Hind limb incapacitance test in guinea pig model of osteoarthritis induced by MIA. Type of test: in vivo. As to the method:
An experiment was conducted as follows in order to evaluate the efficacy of the compound according to the present invention for osteoarthritis-induced guinea pigs.
(§1) Specifically, male guinea pigs weighing about 500 g±20% from Coretech Co., Ltd. (Gyeonggi-do, Korea) were acclimated in a laboratory for 8 days, and provided chow and water ad libitum. Temperature (23±3° C.), humidity (55±15%) and light/dark cycle (12 hours, 08:00˜20:00) were controlled automatically.
(§2) Each group consisted of 10 guinea pigs. Guinea pigs were anesthetized with Zoletil 50 (VIRBAC, France, 5 mg/kg) and xylazine (Rompun®, Bayer AG, Germany, 2.5 mg/kg) and depilated at the area around the right knee with Clipper. Using a C-arm (ARCADIS Varic, SIEMENS Co.), it was confirmed that a syringe equipped with a 26 gauge needle was located in the joint cavity. 50 μL of MIA at a concentration of 60 mg/mL was administered into the joint cavity. One week after MIA administration, Compound 9 of the present invention was added to excipients (DMSO (10% by weight), Tween 80 (30% by weight), HMPC (same amount as the drug)), dissolved in water so that the total amount was 100% by weight, and orally administered to the prepared experimental animals at 10 mg/kg and 25 mg/kg, respectively. In the positive control group, GRC27864 was orally administered at 12.5 mg/kg using the same excipient, and only the excipient was orally administered to the control group. The drug was administered for 4 weeks.
(§3) The hind limb incapacitance test was performed for the behavioral evaluation weekly for 4 weeks and the inflammatory factor evaluation was performed by measuring PGE2, IL-1β, and TNF-α in blood after 4 weeks.
The hind limb weight-bearing ratios were obtained by setting up the animals at an inclination of 60 degrees in a plastic room using an incapacitance meter tester, measuring the intensity applied to each hind limb over 10 seconds, and calculating an average. Weight-bearing ratios are 50% for normal cases and up to early 30% for the cases in which a disease is induced.

The subject of test [3] is PGE2, IL-1β, and TNF-α in blood. Briefly: Inflammatory factor evaluation (ELISA) in blood of MIA osteoarthritis guinea pigs. The settings on record: for IL-1β (ELISA analysis) / PGE2 (ELISA analysis) / TNF-α (ELISA analysis): blood, after 4 weeks. Type of test: in vivo, guinea pig. As to the method: as §1, §2, §3
The concentrations of PGE2, IL-1β, and TNF-α in blood were measured using commercially available ELISA kit after 4 weeks. The results are shown in Table 4 below and FIGS. 2 to 4. ***, ** and * represent statistical significance compared to the control group, and are P<0.001, P<0.01, and P<0.05 compared to the control group.
(An ELISA detects its analyte on a solid surface through an enzyme-linked reagent.)

Test [4] relates to acetic acid-induced abdominal contraction mouse model. The test can be described thus: Anti-pain efficacy test, acetic acid-induced abdominal contraction mouse model. Type of test: in vivo. The settings on record: oral, 1 hour before 0.7% acetic acid i.p.; writhing counted for 10 minutes (FIG. 5). As to the method: In order to evaluate the anti-pain efficacy of the compound according to the present invention in abdominal contraction mice, an experiment was conducted as follows.
Specifically, male ICR mice weighing about 20 to 25 g from Orient Bio Co., Ltd. (Gyeonggi-do, Korea) were acclimated in a laboratory for 7 days and provided chow and water ad libitum. Temperature (20±2° C.), humidity (40±60%) and light/dark cycle (12 hours) were controlled automatically.
Based on 10 mice per group, the control group was orally administered with an excipient (200 μL), and the positive control group was orally administered with celecoxib at 25 mg/kg. Compound 9 of the present invention was dissolved in an excipient (10% NMP (N-methyl-2-pyrrolidone), 10% ethanol, 80% polyethylene glycol 400) and administered orally at 10 and 50 mg/kg to each mouse. One hour after drug administration, 0.7% acetic acid was intraperitoneally injected at […] to induce pain. The number of writhing was measured for 10 minutes from 10 minutes after the acetic acid administration.
In this experiment, the less the number of writhing for 10 minutes, the stronger the anti-pain efficacy of the drug was evaluated. The statistical significance compared to the control group was represented as **P<0.01, *P<0.05 compared to the control group.
For orientation: Writhing tests count abdominal constrictions after an irritant is injected.

For `CC(C)C(=O)NCc1ccc(Cl)c(C(=O)Nc2ccc3c(c2)cc(C(=O)Nc2ccc(OC(F)(F)F)cc2)n3C)c1` [Compound 9, 5-(2-chloro-5-(isobutyramidomethyl)benzamido)-1-methyl-N-(4-(trifluoromethoxy)phenyl)-1H-indole-2-carboxamide], the IC50 (commonly the midpoint of a concentration-inhibition curve) in test [1] stood at 7.16 nM. The Weight-bearing ratio worked out at 42.05 ± 2.99% in test [2] (10 mpk oral, day 0); 39.64 ± 5.30% in test [2] (10 mpk oral, day 7); 39.53 ± 6.41% in test [2] (10 mpk oral, day 14); 40.16 ± 2.92% in test [2] (10 mpk oral, day 21); 38.42 ± 1.52% in test [2] (10 mpk oral, day 28); 39.15 ± 4.53% in test [2] (25 mpk oral, day 0). Besides, the Weight-bearing ratio in test [2] (25 mpk oral, day 7) is recorded as 42.39 ± 3.69%; in test [2] (25 mpk oral, day 14), 40.65 ± 3.61%; in test [2] (25 mpk oral, day 21), 39.19 ± 3.15%; in test [2] (25 mpk oral, day 28), 39.28 ± 4.14%. Besides, the “weight-bearing ratios, course in words” value in test [2] (over 4 weeks of oral administration after MIA) is listed as “did not worsen after MIA administration but were maintained”. In test [3] (25 mpk, compared with GRC27864 group), the “inhibitory ability on inflammatory factors, in words” value is recorded as “inhibited the inflammatory factor more than the group administered with the drug GRC27864”. Moreover, the “IL-1β (ELISA analysis)” value in test [3] (10 mpk oral) turned out to be 41.547 ± 10.683; in test [3] (25 mpk oral), 34.345 ± 11.786. Moreover, the results for the “PGE2 (ELISA analysis)” value in test [3] (10 mpk oral) and in test [3] (25 mpk oral) were 9331.6 ± 2215.6 and 5812.4 ± 1758.8***, respectively. Also, the “TNF-α (ELISA analysis)” value in test [3] (10 mpk oral) is 119.715 ± 22.898; in test [3] (25 mpk oral), 94.833 ± 22.453**. Moreover, the “number of writhing compared to the control group” value in test [4] is listed as “significantly lower number of writhing compared to the control group”.

On to `Cc1ccc(-c2cc(C(F)(F)F)nn2-c2ccc(S(N)(=O)=O)cc2)cc1` [celecoxib, reference compound], for which the “number of writhing compared to the control group” value in test [4] is on record as “significantly lower number of writhing compared to the control group”.
